In patent US4912036A, “Rapid differentiation of bacteria using cyclic polypeptide antibiotics” (Eastman Kodak Company, priority 1986, dated 1990):

Legend:
[1] = tested on: K. pneumoniae; assay: RIND VII reduction solution assay, ΔOD 635 nm; assay type: cell-based, Klebsiella pneumoniae; conditions: K. pneumoniae 7 × 10^7 /ml, antibiotic 10^-4 molar
[2] = tested on: S. aureus; assay: RIND XXIX reduction solution assay, Δ fluorescence; assay type: cell-based, Staphylococcus aureus; conditions: S. aureus (gram +) about 5×10^7 cells/ml, gramicidin S 0.1 mg/ml, 37° C.
Protocol: (§1) Bacterial suspensions were prepared by growing the cells in BHT broth to stationary phase overnight at 37° C. P. auruginosa was grown with agitation. About 40 ml of each overnight culture was centrifuged, decanted and washed once with 0.05 molar potassium phosphate buffer or 0.05 molar N-2-hydroxy-ethylpiperazine-N'-2-ethanesulfonic acid (HEPES) buffer, pH 7.8, and resuspended in buffer.
Dispersions containing RIND compounds were prepared by dissolving the RIND compound in N,N-dimethylformamide (DMF) at 16 mg compound per ml of solvent. An aliquot (250 μl) of the resulting solution was added to 500 μl of TRITON X-100 surfactant. This mixture was then added dropwise with stirring to 25 ml of 0.05 molar HEPES buffer. A dispersion of RIND XXIX was prepared similarly except that DMF was acidified with 0.1% sulfuric acid. […]
(§2) The solutions were incubated at 37° C. for 30 minutes, and the change in fluorescence emission (Δ fluorescence) was determined as the difference between the readings taken when the solutions were first mixed and then after 30 minutes incubation. Measurements were made in a commercially available MICROFLUOR Reader (available from Dynatech Laboratories, Alexandria, Virginia, U.S.A.), modified with an excitation filter at 540 nm, an emission filter at 620 nm and a Xenon lamp.

[3] = tested on: E. coli; assay: RIND XXIX reduction solution assay, Δ fluorescence; assay type: cell-based, Escherichia coli; conditions: E. coli (gram -) about 5×10^7 cells/ml, gramicidin S 0.1 mg/ml, 37° C.
Protocol: as §1
(§3) Dispersions containing RIND compounds were prepared by dissolving the RIND compound in N,N-dimethylformamide (DMF) at 16 mg compound per ml of solvent. An aliquot (250 μl) of the resulting solution was added to 500 μl of TRITON X-100 surfactant. This mixture was then added dropwise with stirring to 25 ml of 0.05 molar HEPES buffer. A dispersion of RIND XXIX was prepared similarly except that DMF was acidified with 0.1% sulfuric acid. Compositions containing water-compatible RIND compounds were prepared as described above except the surfactant was omitted.
(§4) Each test solution contained the following: dispersion of RIND XXIX (25 μl) prepared as described above, glucose (400 μl of 10% aqueous solution), tryptose (400 μl of 10% aqueous solution), trimethyl-1,4-benzoquinone ETA (500 μl of 1.5 mg/ml methanol). Aliquots (200 μl) of the mixture were mixed with solutions of the antibiotics (50 μl). The cell suspensions (50 μl) were then added. The final concentration of gramcidin S and tyrocidin were 0.1 mg/ml and 3.3 mg/ml, respectively. The final cell concentration was about 5×10^7 cells/ml. Cell control solutions contained all reagents except antibiotics. Background controls consisted of both buffer and solution controls. […]
as §2, with “lamp. […]” for “lamp.”

[4] = tested on: P. vulgaris; assay: RIND XXIX reduction solution assay, Δ fluorescence; assay type: cell-based, Proteus vulgaris; conditions: P. vulgaris (gram -) about 5×10^7 cells/ml, gramicidin S 0.1 mg/ml, 37° C.
Protocol: as §1, §3, §4
as §2, with “lamp. […]” for “lamp.”

[5] = tested on: P. aeruginosa; assay: RIND XXIX reduction solution assay, Δ fluorescence; assay type: cell-based, Pseudomonas aeruginosa; conditions: P. aeruginosa (gram -) about 5×10^7 cells/ml, gramicidin S 0.1 mg/ml, 37° C.
Protocol: as §1, §3, §4
as §2, with “lamp. […]” for “lamp.”

[6] = tested on: K. pneumoniae; assay: MTT reduction solution assay, ΔOD 540 nm; assay type: cell-based, Klebsiella pneumoniae; conditions: K. pneumoniae (-) 5×10^7, gramicidin S 0.00625 mg/ml, 37° C.
Protocol: (§5) These examples illustrate the differentiation of bacteria using a tetrazolium salt and phenolic dye as the reducible compounds and two cyclic polypeptide antibiotics according to the present invention. The tetrazolium salt was 3-(4,5-dimethyl-2-thiazolyl) -2,5-diphenyl-2H-tetrazolium bromide (MTT) which forms a colored formazan dye when reduced. The phenolic dye was 2,6-dichloroindophenol (DCIP) which forms a colorless species when reduced.
(§6) Solutions of the reducible compounds were prepared with the following: HEPES buffer (3 ml, 0.05 molar, pH 7.5), TRITON X-100 nonionic surfactant (1% concentration), glucose (50 μl of 10% in water), tryptose (50 μl of a 10% solution in water), MTT (25 μl of 5 mg/ml methanol) or DCIP (25 μl of 3 mg/ml methanol) and phenazine methosultate ETA (25 μl of 3 mg/ml methanol).
(§7) Test solutions were prepared from the following: reducible compound solution from above (200 μl), 50 μl of either gramicidin S solution (6 mg/ml methanol and 9 ml of buffer) or tyrocidin solution (100 mg/ml methanol and 8 ml of buffer) and 50 μl of cell suspension. […] The change in optical density (ΔOD) was determined after 30 minutes at 37° C. at 540 nm for the MTT assay and at 620 nm for the DCIP assay using a commercially available spectrophotometer.

[7] = tested on: E. coli; assay: DCIP reduction solution assay, ΔOD 620 nm; assay type: cell-based, Escherichia coli; conditions: E. coli (-) 5×10^7, gramicidin S 0.00625 mg/ml, 37° C.
Protocol: as §5, §6, §7

[8] = tested on: various bacteria which are found in the human urinary tract; assay: Differentiation with RIND VII, overall result; assay type: cell-based; conditions: gramicidin S 10^-4 molar
Protocol: TERGITOL 7 anionic surfactant was used to differentiate viable bacteria according to the prior art method. Various concentrations of TERGITOL 7 surfactant were mixed with a 10% glucose solution (50 μl), 3-(4,5-dimethyl-2-thiazolyl)-2,5-diphenyl-2N-tetrazolium bromide (MTT) (25 μl at 5 mg/ml methanol) or a RIND VII dispersion (1.5 ml) and phenazine methosulfate ETA (25 μl at 3 mg/ml methanol). The volume of each test solution was brought to 3 ml with potassium phosphate buffer. A cell suspension (100 μl at about 10^8 cells/ml) was then added. The solutions were incubated at 37° C. for 15 and 30 minutes in the presence of either E. coli, a gram(-) bacterium, or S. aureus, a gram(+) bacterium. The amount of dye formed was then determined visually, and graded as follows: "O" indicates no dye formation, +/- indicates faint dye formation, 1+ indicates light dye formation, 2+ indicates moderate dye formation, 3+ indicates strong dye formation, and 4+ indicates very strong dye formation.
Gramicidin S, a cyclic polypeptide antibiotic, was similarly used with RIND VII in the differentiation of various bacteria which are found in the human urinary tract. Assays were performed as described above. The final concentration of gramicidin S in each test was 10^-4 molar. […] Dye measurements were made at 635 nm and expressed below as the change in optical density (ΔOD) which was corrected for background.

gramicidin S
Corrected ΔOD (15 Minutes) [1]: > 2.0 | Δ Fluorescence (30 Minutes) [2]: 0478 | Δ Fluorescence (30 Minutes) [3]: > 4000 | Δ Fluorescence (30 Minutes) [4]: 3491 | Δ Fluorescence (30 Minutes) [5]: > 4000 | ΔOD, 540 nm after 30 Minutes [6]: 1.207 | ΔOD, 620 nm after 30 Minutes [7]: 1.042 | inhibition of reduction of the RIND compound, in words [8]: selectively inhibits the reduction of the RIND compound by viable gram-positive bacteria but not gram-negative bacteria
